System: HBV
Experiment: HBV inhibition assay: anti-HBV activity in vitro in HepG2.2.15 cells (extracellular HBV DNA by qPCR)
Format: cell-based
Conditions: five days after compound treatment, extracellular HBV DNA in culture supernatant by qPCR, concentration at which HBV replication is inhibited by 50%
From the text: Example 441: HBV Inhibition Assays
Cell Line and Culture Conditions:
HepG2.2.15 is a stably-transfected cell line containing the HBV genome. It is derived from the hepatoblastoma cell line Hep G2 (American Type Culture Collection, ATCC® HB-8065™) by the published procedures described in reference: MA Selles et al. Proc. Natl. Acad. Sci. USA 1987, 84, 1005-1009. The cell line was maintained in Dulbecco's modified Eagle's medium (DMEM)-F12 medium supplemented with 10% fetal bovine serum, 100 U/mL penicillin, 100 μg/mL streptomycin, and 0.5 mg/mL of G418.
Anti-HBV Activity In Vitro:
HepG2.2.15 cells were seeded into 96-well plates (3×10^4 cells in 100 μL media per well) and incubated overnight at 37° C. The test compounds were serially half-log diluted in DMSO, then diluted 100 times in culture media. 100 μL diluted compounds were added into the plates to reach 0.5% final concentration of DMSO in every well. Five days after compound treatment, culture supernatant was collected for further analysis.
For quantitative PCR detection of extracellular HBV DNA, culture supernatant was processed by Proteinase K digestion. After heat inactivation of the enzyme, the samples were subjected to HBV DNA quantification by qPCR. The effective compound concentration at which
HBV replication is inhibited by 50% (EC50) was determined.

In the case of `C[C@H]1Cn2ncc(N3CC(c4nnc(C(F)(F)F)o4)CC3=O)c2CN1C(=O)Nc1cc(F)c(F)c(F)c1` (stereo partly drawn) [Example 286, (6S)-6-methyl-3-[2-oxo-4-[5-(trifluoromethyl)-1,3,4-oxadiazol-2-yl]pyrrolidin-1-yl]-N-(3,4,5-trifluorophenyl)-6,7-dihydro-4H-pyrazolo[1,5-a]pyrazine-5-carboxamide], the EC50 (Hepatitis B virus, 120 h) is reported as 26 nM.
`C[C@H]1Cn2ncc(N3CCCC3=O)c2CN1C(=O)Nc1cc(F)c(F)c(C(F)F)c1` [Example 239, (6S)—N-[3-(difluoromethyl)-4,5-difluoro-phenyl]-6-methyl-3-(2-oxopyrrolidin-1-yl)-6,7-dihydro-4H-pyrazolo[1,5-a]pyrazine-5-carboxamide] was tested, and the EC50 (Hepatitis B virus, 120 h) was 38 nM.
Compound `C[C@H]1Cn2ncc(N3CC4CC4C3=O)c2CN1C(=O)Nc1cc(F)c(F)c(F)c1` (stereo partly drawn) [Example 253, (6S)-6-methyl-3-(2-oxo-3-azabicyclo[3.1.0]hexan-3-yl)-N-(3,4,5-trifluorophenyl)-6,7-dihydro-4H-pyrazolo[1,5-a]pyrazine-5-carboxamide] has an EC50 (Hepatitis B virus, 120 h) of 44 nM.
For `C[C@H]1Cn2ncc(N3C[C@H](Oc4ncccn4)CC3=O)c2CN1C(=O)Nc1cc(F)c(F)c(F)c1` [Example 415, (6S)-6-methyl-3-[(4R)-2-oxo-4-pyrimidin-2-yloxy-pyrrolidin-1-yl]-N-(3,4,5-trifluorophenyl)-6,7-dihydro-4H-pyrazolo[1,5-a]pyrazine-5-carboxamide], the EC50 (Hepatitis B virus, 120 h) was 25 nM.
`Cc1cc(NC(=O)N2CCn3ncc(-c4ccc(F)cc4)c3C2)ccc1F` [Example 81, N-(4-fluoro-3-methyl-phenyl)-3-(4-fluorophenyl)-6,7-dihydro-4H-pyrazolo[1,5-a]pyrazine-5-carboxamide] showed an EC50 (Hepatitis B virus, 120 h) of 32 nM.
For `C[C@H]1Cn2ncc(N3Cc4ccnn4CC3=O)c2CN1C(=O)Nc1cc(F)c(F)c(F)c1` [Example 419, (6S)-6-methyl-3-(6-oxo-4,7-dihydropyrazolo[1,5-a]pyrazin-5-yl)-N-(3,4,5-trifluorophenyl)-6,7-dihydro-4H-pyrazolo[1,5-a]pyrazine-5-carboxamide], the EC50 (Hepatitis B virus, 120 h) was 71 nM.
Work on `C[C@H]1Cn2ncc(N3CC(c4ccccn4)OC3=O)c2CN1C(=O)Nc1cc(F)c(F)c(F)c1` (stereo partly drawn) [Example 345, (6S)-6-methyl-3-[2-oxo-5-(2-pyridyl)oxazolidin-3-yl]-N-(3,4,5-trifluorophenyl)-6,7-dihydro-4H-pyrazolo[1,5-a]pyrazine-5-carboxamide] yielded an EC50 (Hepatitis B virus, 120 h) of 17 nM.
Work on `C[C@H]1Cn2ncc(N3CC(C)(C)OC3=O)c2CN1C(=O)Nc1cc(F)c(F)c(F)c1` [Example 250, (6S)-3-(5,5-dimethyl-2-oxo-oxazolidin-3-yl)-6-methyl-N-(3,4,5-trifluorophenyl)-6,7-dihydro-4H-pyrazolo[1,5-a]pyrazine-5-carboxamide] yielded an EC50 (Hepatitis B virus, 120 h) of 21 nM.
Compound `CC1Cn2ncc(-c3ccc(F)cn3)c2CN1C(=O)Nc1cc(F)c(F)c(F)c1` (centres unmarked) [Example 99, 3-(5-fluoro-2-pyridyl)-6-methyl-N-(3,4,5-trifluorophenyl)-6,7-dihydro-4H-pyrazolo[1,5-a]pyrazine-5-carboxamide] has an EC50 (Hepatitis B virus, 120 h) of 24 nM.
For `COCC1CC(=O)N(c2cnn3c2CN(C(=O)Nc2ccc(F)c(Cl)c2)[C@@H](C)C3)C1` (stereo partly drawn) [Example 295, (6S)—N-(3-chloro-4-fluoro-phenyl)-3-[4-(methoxymethyl)-2-oxo-pyrrolidin-1-yl]-6-methyl-6,7-dihydro-4H-pyrazolo[1,5-a]pyrazine-5-carboxamide], the EC50 (Hepatitis B virus, 120 h) was 33 nM.
`C[C@@H]1[C@@H](Oc2ncccn2)[C@H](O)C(=O)N1c1cnn2c1CN(C(=O)Nc1cc(F)c(F)c(F)c1)[C@@H](C)C2` [Example 436, (6S)-3-[(2R,3R,4S)-4-hydroxy-2-methyl-5-oxo-3-pyrimidin-2-yloxy-pyrrolidin-1-yl]-6-methyl-N-(3,4,5-trifluorophenyl)-6,7-dihydro-4H-pyrazolo[1,5-a]pyrazine-5-carboxamide] showed an EC50 (Hepatitis B virus, 120 h) of 16 nM.
In the case of `O=C(Nc1ccc(F)c(Cl)c1)N1CCn2ncc(N3CC4CC4C3)c2C1` (centres unmarked) [Example 215, 3-[3-azabicyclo[3.1.0]hexan-3-yl]-N-(3-chloro-4-fluoro-phenyl)-6,7-dihydro-4H-pyrazolo[1,5-a]pyrazine-5-carboxamide], the EC50 (Hepatitis B virus, 120 h) is reported as 100 nM.
`O=C(Nc1ccc(F)c(C2CC2)c1)N1CCn2ncc(-c3ccc(F)cc3F)c2C1` [Example 150, N-(3-cyclopropyl-4-fluoro-phenyl)-3-(2,4-difluorophenyl)-6,7-dihydro-4H-pyrazolo[1,5-a]pyrazine-5-carboxamide] was tested, and the EC50 (Hepatitis B virus, 120 h) was 58 nM.
`CC1COC(=O)N(c2cnn3c2CN(C(=O)Nc2cc(F)c(F)c(F)c2)[C@@H](C)C3)C1` (stereo partly drawn) [Example 278, (6S)-6-methyl-3-(5-methyl-2-oxo-1,3-oxazinan-3-yl)-N-(3,4,5-trifluorophenyl)-6,7-dihydro-4H-pyrazolo[1,5-a]pyrazine-5-carboxamide] was tested, and the EC50 (Hepatitis B virus, 120 h) was 27 nM.
With `O=C(Nc1ccc(F)c(C(F)(F)F)c1)N1CCn2ncc(-c3ccccc3F)c2C1` [Example 34, 3-(2-fluorophenyl)-N-[4-fluoro-3-(trifluoromethyl)phenyl]-6,7-dihydro-4H-pyrazolo[1,5-a]pyrazine-5-carboxamide] the EC50 (Hepatitis B virus, 120 h) was 52 nM.
Work on `CC1Cn2ncc(C3CCCC3)c2CN1C(=O)Nc1ccnc(Cl)c1` (centres unmarked) [Example 96, N-(2-chloro-4-pyridyl)-3-cyclopentyl-6-methyl-6,7-dihydro-4H-pyrazolo[1,5-a]pyrazine-5-carboxamide] yielded an EC50 (Hepatitis B virus, 120 h) of 72 nM.
Work on `C[C@H]1Cn2ncc(N3CC4(CC3=O)CN(c3ncccn3)C4)c2CN1C(=O)Nc1cc(F)c(F)c(F)c1` [Example 337, (6S)-6-methyl-3-(7-oxo-2-pyrimidin-2-yl-2,6-diazaspiro[3.4]octan-6-yl)-N-(3,4,5-trifluorophenyl)-6,7-dihydro-4H-pyrazolo[1,5-a]pyrazine-5-carboxamide] yielded an EC50 (Hepatitis B virus, 120 h) of 15 nM.
Compound `C[C@H]1Cn2ncc(N3CC(C(F)(F)F)CC3=O)c2CN1C(=O)Nc1ccnc(C(F)F)c1` (stereo partly drawn) [Example 241, (6S)—N-[2-(difluoromethyl)-4-pyridyl]-6-methyl-3-[2-oxo-4-(trifluoromethyl)pyrrolidin-1-yl]-6,7-dihydro-4H-pyrazolo[1,5-a]pyrazine-5-carboxamide] has an EC50 (Hepatitis B virus, 120 h) of 75 nM.
Compound `CC1Cn2ncc(-c3ccc(F)cc3)c2CN1C(=O)Nc1ccc(F)c(C#N)c1` (centres unmarked) [Example 86, N-(3-cyano-4-fluoro-phenyl)-3-(4-fluorophenyl)-6-methyl-6,7-dihydro-4H-pyrazolo[1,5-a]pyrazine-5-carboxamide] has an EC50 (Hepatitis B virus, 120 h) of 66 nM.
With `C[C@H]1Cn2ncc(N3CC(C)(c4nnco4)CC3=O)c2CN1C(=O)Nc1cc(F)c(F)c(F)c1` (stereo partly drawn) [Example 404, (6S)-6-methyl-3-[4-methyl-4-(1,3,4-oxadiazol-2-yl)-2-oxo-pyrrolidin-1-yl]-N-(3,4,5-trifluorophenyl)-6,7-dihydro-4H-pyrazolo[1,5-a]pyrazine-5-carboxamide] the EC50 (Hepatitis B virus, 120 h) was 42 nM.
Work on `C[C@H]1Cn2ncc(N3CC(c4ccccc4)C(O)C3=O)c2CN1C(=O)Nc1cc(F)c(F)c(F)c1` (single isomer, unassigned) [Example 438-3] yielded an EC50 of 44 nM.
Work on `N#Cc1cc(NC(=O)N2CCn3ncc(-c4ccc(F)cc4F)c3C2)ccc1F` [Example 142, N-(3-cyano-4-fluoro-phenyl)-3-(2,4-difluorophenyl)-6,7-dihydro-4H-pyrazolo[1,5-a]pyrazine-5-carboxamide] yielded an EC50 (Hepatitis B virus, 120 h) of 56 nM.
In the case of `C[C@H]1Cn2ncc(N3CC(c4cncs4)CC3=O)c2CN1C(=O)Nc1cc(F)c(F)c(F)c1` (stereo partly drawn) [Example 290, (6S)-6-methyl-3-(2-oxo-4-thiazol-5-yl-pyrrolidin-1-yl)-N-(3,4,5-trifluorophenyl)-6,7-dihydro-4H-pyrazolo[1,5-a]pyrazine-5-carboxamide], the EC50 (Hepatitis B virus, 120 h) is reported as 11 nM.
`Cc1nc(C2CC(=O)N(c3cnn4c3CN(C(=O)Nc3cc(F)c(F)c(F)c3)[C@@H](C)C4)C2)co1` (stereo partly drawn) [Example 350, (6S)-6-methyl-3-[4-(2-methyloxazol-4-yl)-2-oxo-pyrrolidin-1-yl]-N-(3,4,5-trifluorophenyl)-6,7-dihydro-4H-pyrazolo[1,5-a]pyrazine-5-carboxamide] was tested, and the EC50 (Hepatitis B virus, 120 h) was 15 nM.
For `C[C@H]1Cn2ncc(N3CCC(O)C3=O)c2CN1C(=O)Nc1ccc(F)c(Cl)c1` (stereo partly drawn) [Example 256, (6S)—N-(3-chloro-4-fluoro-phenyl)-3-(3-hydroxy-2-oxo-pyrrolidin-1-yl)-6-methyl-6,7-dihydro-4H-pyrazolo[1,5-a]pyrazine-5-carboxamide], the EC50 (Hepatitis B virus, 120 h) was 68 nM.
For `C[C@H]1Cn2ncc(N3CN(S(C)(=O)=O)CC3=O)c2CN1C(=O)Nc1cc(F)c(F)c(F)c1` [Example 248, (6S)-6-methyl-3-(3-methylsulfonyl-5-oxo-imidazolidin-1-yl)-N-(3,4,5-trifluorophenyl)-6,7-dihydro-4H-pyrazolo[1,5-a]pyrazine-5-carboxamide], the EC50 (Hepatitis B virus, 120 h) was 93 nM.
In the case of `O=C(Nc1ccc(F)cc1)N1CCn2ncc(-c3ccccc3F)c2C1` [Example 33, 3-(2-fluorophenyl)-N-(4-fluorophenyl)-6,7-dihydro-4H-pyrazolo[1,5-a]pyrazine-5-carboxamide], the EC50 (Hepatitis B virus, 120 h) is reported as 85 nM.
For `CC1C(C#N)CC(=O)N1c1cnn2c1CN(C(=O)Nc1cc(F)c(F)c(F)c1)[C@@H](C)C2` (single isomer, unassigned) [Example 420-3], the EC50 was 3 nM.
For `CC1CN(C(=O)Nc2ccc(F)c(Cl)c2)Cc2c(-c3ccc(F)cc3)cnn21` (centres unmarked) [Example 230, N-(3-chloro-4-fluoro-phenyl)-3-(4-fluorophenyl)-7-methyl-6,7-dihydro-4H-pyrazolo[1,5-a]pyrazine-5-carboxamide], the EC50 (Hepatitis B virus, 120 h) was 52 nM.

From patent US11168086B2, “Methods of synthesizing pyrazine compounds” (Hoffmann-La Roche Inc., priority 2015, dated 2021)
